Like-named read-outs stand apart in the source and are kept apart here.
Columns and labels:
[1] = target: rHSP90; assay: HSP90 binding assay (BIACORE SPR; inhibition of binding between rHSP90 and fixed herbimycin A); details: concentration inhibiting binding between rHSP90 (50 μg/mL) and fixed herbimycin A by 50%, BIACORE-X SPR; read-out: HSP90 inhibitory activity IC50
Text: The HSP90 binding assay system is a system for detecting the change of mass as SPR signal caused by the binding between herbimycin A fixed on a sensor chip and rHSP90 by BIACORE-X, in which 17-(6-amino hexylamino)herbimycin A is fixed through a carboxyl group on the surface of the sensor chip (CM5, BIACORE) on which carboxymethyldextran has been introduced. The method was according to the protocol of BIACORE. In addition, 17-(6-aminohexylamino)herbimycin A was synthesizes as described below.
rHSP90 (Stressgen Biotechnologies Corp., Victoria, BC Canada) at 50 μg/mL was exposed for 10 seconds to the surface of the sensor chip on which herbimycin A was fixed and the SPR signal (numerical value of interaction) was detected.
After mixing rHSP90 protein (5×10^−7M (50 μg/mL)) with the triazole derivative of the present invention, the mixture was exposed for 10 seconds to the surface of the sensor chip on which herbimycin A was fixed, and the SPR signal was measured by BIACORE-X.
Next, using following formula (1), the inhibitory activity (binding inhibition rate (%)) of the compound of the present invention to the binding between rHSP90 and fixed herbimycin A was obtained.
binding inhibition rate(%)=((b−s)/b)×100 Formula (1)
wherein b is the SPR signal when the compound of the present invention is not added to the sample: s is the SPR signal when the compound of the present invention is added to the sample.

[2] = system: Human breast cancer cells (MCF7); assay: Antiproliferative activity on MCF7 cells (methylene blue method); type: cell-based; details: read-out: Antiproliferative activity IC50
Method: Human breast cancer cells (MCF7) were treated with samples of various concentrations of known HSP90 inhibitors (that is, geldanamycin, herbimycin, radicicol and PU3) and the compounds of the present invention for 72 hours to confirm the effect of the triazole derivatives of the present invention on the cell growth. The cell ratio after the drug treatment was evaluated by measuring 660 nm absorbance by a microplate reader (BioRad) after staining the cells with the methylene blue method.
Cells were distributed to wells of 96 well plates at 2000 cells per well and treated with drugs 24 hours later. Further, the medium was removed 72 hours later and the cells were fixed by adding 50 μl of methanol and standing at room temperature for 2 minutes. After removing methanol, 100 μl of a staining solution was added and stained for 30 minutes. After washing 3 times with 200 μl of distilled water, 3% HCl solution was added, and the 660 nm absorbance of methylene blue was measured by a microplate reader (BioRad).
Next, the antiproliferative activity rate (%) was obtained by the formula (2) below.
Antiproliferative activity rate(%)=((B−A)/B)×100 Formula (2)
wherein B is 660 nm absorbance of the sample when the compound of the present invention is not added, and A is 660 nm absorbance of the sample when the compound of the present invention is added.
From the concentration of the triazole derivative of the present invention and the antiproliferative activity rate, the concentration was obtained using the above formula, at which the cell growth was suppressed by 50% by comparing with the control, and termed an IC50 value.
The antiproliferative activity rate (%) was obtained for SH-b04, SH-b05 and SH-b06 described above by a similar manner to that of the triazole derivatives of the present invention.

[3] = Homo sapiens, MCF7, 72 h, MCF7 cells, 72 hours treatment, 660 nm absorbance after methylene blue staining

| SMILES | IC50 [1] [nM] | IC50 [2, 3] [nM] | IC50 ([2]; MCF7 cells, 72 hours treatment, 660 nm absorbance after methylene blue staining) [nM] | IC50 ([2]; Homo sapiens, MCF7, 72 h) [nM] |
| --- | --- | --- | --- | --- |
| COc1ccc(-n2c(-c3cc(C(C)C)c(O)cc3O)nnc2S(=O)(=O)Cc2cccnc2)cc1 [SFN4-a08, 4-isopropyl-6-[4-(4-methoxy-phenyl)-5-(pyridin-3-ylmethanesulfonyl)-4H-[1,2,4]triazol-3-yl]-benzene-1,3-diol] | 230 | 9900 |  |  |
| CC#CCc1cc(-c2n[nH]c(=O)n2-c2ccc(CN3CCOCC3)cc2)c(O)cc1O [OH-c02, 5-[5-(but-2-ynyl)-2,4-dihydroxy-phenyl]-4-[4-(morpholin-4-ylmethyl)-phenyl]-2,4-dihydro-[1,2,4]triazol-3-one] | 220 | 140 |  |  |
| C#CCc1cc(-c2n[nH]c(=O)n2-c2ccc(CN3CCOCC3)cc2)c(O)cc1O [OH-e02, 5-[2,4-dihydroxy-5-(prop-2-ynyl)-phenyl]-4-[4-(morpholin-4-ylmethyl)-phenyl]-2,4-dihydro-[1,2,4]triazol-3-one] | 150 | 240 |  |  |
| CC(C)c1cc(-c2nnc(S(C)(=O)=O)n2CCN2CCOCC2)c(O)cc1O [SFN-a26, 4-isopropyl-6-[5-methanesulfonyl-4-(2-molpholin-4-ylethyl)-4H-[1,2,4]triazol-3-yl]-benzene-1,3-diol] |  | > 20000 |  |  |
| COc1ccc(-n2c(-c3cc(C(C)C)c(O)cc3O)n[nH]c2=O)cc1OC [OH-a10, 5-(2,4-dihydroxy-5-isopropyl-phenyl)-4-(3,4-dimethoxy-phenyl)-2,4-dihydro-[1,2,4]triazol-3-one] |  | 14 |  |  |
| C[C@@H]1C[C@H]2O[C@@H]2/C=C\C=C\C(=O)Cc2c(Cl)c(O)cc(O)c2C(=O)O1 [radicicol, reference compound] |  | 19 |  |  |
| Oc1cc(O)c(-c2n[nH]c(=S)n2-c2ccc(N3CCOCC3)cc2)cc1Br [SH-d01, 4-bromo-6-{5-mercapto-4-[4-(morpholin-4-yl)-phenyl]-4H-[1,2,4]triazol-3-yl}-benzene-1,3-diol] |  | 580 |  |  |
| CO[C@H]1[C@@H](OC)C[C@H](C)[C@@H](OC)C2=CC(=O)C=C(NC(=O)/C(C)=C/C=C\[C@H](OC)[C@@H](OC(N)=O)/C(C)=C/[C@@H]1C)C2=O [herbimycin, reference compound] |  |  |  | 160 |

Further lines, with some results ahead:

| IC50 [1] [nM] | IC50 [2, 3] [nM] | IC50 ([2]; MCF7 cells, 72 hours treatment, 660 nm absorbance after methylene blue staining) [nM] | SMILES | IC50 ([2]; Homo sapiens, MCF7, 72 h) [nM] |
| --- | --- | --- | --- | --- |
| 220 | 400 |  | CC(C)c1cc(-c2n[nH]c(=S)n2C(C)C)c(O)cc1O [SH-a21, 5-(2,4-dihydroxy-5-isopropyl-phenyl)-4-isopropyl-2,4-dihydro-[1,2,4]-triazol-3-thione] |  |
| 85 | 57 |  | COc1ccc(-n2c(-c3cc(C(C)C)c(O)cc3O)n[nH]c2=S)cc1 [SH-a08, 5-(2,4-dihydroxy-5-isopropyl-phenyl)-4-(4-methoxy-phenyl)-2,4-dihydro-[1,2,4]-triazol-3-thione] |  |
| 3600 | > 20000 |  | CC(C)c1cc(-c2nnc(S(C)(=O)=O)n2CCc2ccc[n+]([O-])c2)c(O)cc1O [SFN-a29, 5-(2,4-dihydroxy-5-isopropylphenyl)-4-[2-(1-oxopyridin-3-yl)ethyl]-3-methanesulfonyl-4H-[1,2,4]triazole] |  |
| 740 | 1800 |  | COc1ccc(-n2c(SCCN(C)C)nnc2-c2cc(C(C)C)c(O)cc2O)cc1 [SR2-a08, 4-[5-(3-dimethylamino-ethylsulfanyl)-4-(4-methoxy-phenyl)-4H-[1,2,4]triazol-3-yl]-6-isopropyl-benzene-1,3-diol] |  |
|  |  | 91000 | CCCCn1c(Cc2cc(OC)c(OC)c(OC)c2)nc2c(N)ncnc21 [PU3, reference compound] |  |
|  | 3100 |  | COc1ccc(-n2c(SC)nnc2-c2cc(C(C)C)c(O)cc2O)cc1 [SMe-a08, 4-isopropyl-6-[4-(4-methoxy-phenyl)-5-methylsulfanyl-4H-[1,2,4]triazol-3-yl]-benzene-1,3-diol] |  |
|  | 12 |  | COC1=C2C[C@@H](C)C[C@H](OC)[C@H](O)[C@@H](C)/C=C(\C)[C@H](OC(N)=O)[C@@H](OC)/C=C\C=C(/C)C(=O)NC(=CC1=O)C2=O [geldanamycin, reference compound] |  |
